Assays:
Set-up in all cases: species or system Cell membrane
[1] = target: T1, Melatonin receptor type 1A (Homo sapiens, UniProt P48039); experiment: Displacement of 2-[125I]iodomelatonin from human melatonin MT1 receptor stably expressing in human HEK293 cell membranes under dark condition by radioligand based competition binding assay
[2] = target: T1, Melatonin receptor type 1A; experiment: Displacement of 2-[125I]iodomelatonin from human melatonin MT1 receptor stably expressing in human HEK293 cell membranes in presence of light-activated compounds by radioligand based competition binding assay
[3] = target: T2, Melatonin receptor type 1B (Homo sapiens, UniProt P49286); experiment: Displacement of 2-[125I]iodomelatonin from human melatonin MT2 receptor stably expressing in human HEK293 cell membranes in presence of light-activated compounds by radioligand based competition binding assay
T2 sequence (P49286 whole entry): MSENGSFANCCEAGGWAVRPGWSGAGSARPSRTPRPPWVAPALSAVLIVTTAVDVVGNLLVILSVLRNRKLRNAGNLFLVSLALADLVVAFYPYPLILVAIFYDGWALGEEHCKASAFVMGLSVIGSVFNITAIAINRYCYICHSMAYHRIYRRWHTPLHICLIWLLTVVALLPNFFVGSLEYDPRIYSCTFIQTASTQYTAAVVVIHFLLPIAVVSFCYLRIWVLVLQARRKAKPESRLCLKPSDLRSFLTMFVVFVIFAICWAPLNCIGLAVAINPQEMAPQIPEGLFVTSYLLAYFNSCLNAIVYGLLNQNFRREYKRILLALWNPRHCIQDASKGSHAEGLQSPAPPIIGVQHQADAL

[4] = target: T2, Melatonin receptor type 1B; experiment: Displacement of 2-[125I]iodomelatonin from human melatonin MT2 receptor stably expressing in human HEK293 cell membranes under dark condition by radioligand based competition binding assay

T1 sequence (P48039 whole entry): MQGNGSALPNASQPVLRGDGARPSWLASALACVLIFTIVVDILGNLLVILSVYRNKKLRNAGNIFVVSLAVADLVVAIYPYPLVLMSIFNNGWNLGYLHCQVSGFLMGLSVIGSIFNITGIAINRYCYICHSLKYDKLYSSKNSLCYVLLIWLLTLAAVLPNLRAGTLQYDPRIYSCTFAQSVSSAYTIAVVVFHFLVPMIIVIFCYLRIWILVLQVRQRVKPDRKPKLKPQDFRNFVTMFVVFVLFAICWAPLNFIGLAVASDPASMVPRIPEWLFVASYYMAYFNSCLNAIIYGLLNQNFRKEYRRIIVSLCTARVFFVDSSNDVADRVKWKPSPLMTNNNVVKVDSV

Ki [1]: 51.3 nM | Ki [2]: 7.76 nM | Ki [3]: 6.92 nM | Ki [4]: 39.8 nM
Structure (SMILES): COc1ccc2c(c1)c(CCNC(C)=O)cn2C(=O)OCc1cc(OC)c(OC)cc1[N+](=O)[O-]
